# System: human iPS cells (1231A3 strain)
# Experiment: Bright field observation of cell aggregates in suspension culture (aggregate shape, neuroepithelium / neural tissue formation)
# Assay type: cell-based
# Protocol: The above subconfluent human iPS cells were treated with a cell dispersion solution by using TrypLE Select (Life Technologies), and further dispersed into single cells by a pipetting operation. Thereafter, the above human iPS cells dispersed into single cells were suspended in 100 μl of a serum-free medium in a non-cell-adhesive 96 well culture plate (PrimeSurface 96V-bottom plate, SUMITOMO BAKELITE) at 1.2×10^4 cells per well, and subjected to suspension culturing at 37° C., 5% CO2. As a serum-free medium (gfCDM+KSR) therefor, a 1:1 mixture of F-12 medium and IMDM medium supplemented with 10% KSR, 450 μM 1-monothioglycerol, 1× Chemically defined lipid concentrate was used. At the start of the suspension culturing (on day 0 after the start of suspension culturing, step 2 start), Y27632 (final concentration 20 μM) was added to the above serum-free medium. By day 2 after the start of suspension culturing, cell aggregates were formed (step 2 completed, and step 3 start). On day 3 after the start of suspension culturing, a serum-free medium (50 μl) free of Y27632 was added.
# On day 6 after the start of suspension culturing, a half amount of the medium was changed with a medium free of Y27632 and containing or not containing human recombinant BMP4 (manufactured by R&D) to adjust the final concentration of exogenous human recombinant BMP4 to 1.5 nM (55 ng/ml, FIG. 1B) or to give a medium free of exogenous human recombinant BMP4 (FIG. 1A). As the half-medium exchange operation, a half volume of the medium in the culture vessel, namely 75 μl, was discarded, the above fresh serum-free medium (75 μl) was added to adjust the total medium amount to 150 μl. Thereafter, a half amount of the medium was changed with the above serum-free medium free of Y27632 and human recombinant BMP4 once per 2-4 days. […]
# The thus-prepared subconfluent human iPS cells were treated with a cell dispersion solution by using TrypLE Select (Life Technologies), and further dispersed into single cells by a pipetting operation. Thereafter, the above human iPS cells dispersed into single cells were suspended in 100 μl of a serum-free medium in a non-cell-adhesive 96 well culture plate (PrimeSurface 96V-bottom plate, SUMITOMO BAKELITE) at 1.2×10^4 cells per well, and subjected to suspension culturing at 37° C., 5% CO2. As a serum-free medium (gfCDM+KSR) therefor, a 1:1 mixture of F-12 medium and IMDM medium supplemented with 10% KSR, 450 μM 1-monothioglycerol, 1× Chemically defined lipid concentrate was used. […] By day 2 after the start of suspension culturing, cell aggregates were formed (step 2 completed, step 3 start). On day 3 after the start of suspension culturing, a serum-free medium (50 μl) free of Y27632 and SAG was added. On day 6 after the start of suspension culturing, a half amount of the medium was changed with a medium free of Y27632 and containing or not containing human recombinant BMP4 (manufactured by R&D) to adjust the final concentration of exogenous human recombinant BMP4 to 1.5 nM (55 ng/ml, FIG. 1D) or to give a medium free of exogenous human recombinant BMP4 (FIG. 1C). As the half-medium exchange operation, a half volume of the medium in the culture vessel, namely 75 μl, was discarded, the above fresh serum-free medium (75 μl) was added to adjust the total medium amount to 150 μl. Thereafter, a half amount of the medium was changed with the above serum-free medium free of Y27632, SAG and human recombinant BMP4 once per 2-4 days. […]
# The thus-prepared subconfluent human iPS cells were treated with the cell dispersion solution by using TrypLE Select (Life Technologies), further dispersed into single cells by pipetting operation, and the above human iPS cells dispersed into single cells were suspended in 100 μl of a serum-free medium at 1.2×10^4 cells per well of a non-cell-adhesive 96-well culture plate (PrimeSurface 96V-bottom plate, manufactured by SUMITOMO BAKELITE). Thereafter, the cells were subjected to suspension culturing at 37° C., 5% CO2. […]
# [1] = Example 2 Condition 3, Essential 8, SAG 300 nM day 0, no BMP4, day 18
smiles,measurement,setting,value
CNC1CCC(N(Cc2cccc(-c3ccncc3)c2)C(=O)c2sc3ccccc3c2Cl)CC1 (centres unmarked) [SAG],aggregate shape and neuroepithelial structure (bright field),"Example 1, StemFit, SAG 300 nM day 0, BMP4 1.5 nM day 6, day 19","cell aggregates were maintained, and neuroepithelial structure was observed"
same,aggregate shape and neuroepithelial structure (bright field),"Example 1, StemFit, SAG 300 nM day 0, no BMP4, day 19","cell aggregates were maintained, and neuroepithelial structure was observed"
same,aggregate shape and neuroepithelial structure (bright field),[1],"cell aggregates were maintained, and neuroepithelial structure was efficiently formed"
same,"proportion of bad form aggregates (collapsed, free of neuroepithelium)",[1],6%
same,proportion of good form aggregates (containing many neuroepithelia),[1],93%
same,aggregate shape and neuroepithelial structure (bright field),"Example 2 Condition 4, Essential 8, SAG 300 nM day 0, BMP4 1.5 nM day 6, day 18","cell aggregates were maintained, and neuroepithelial structure was efficiently formed"
same,aggregate shape and neural tissue formation (microscope),"Example 4 Condition 1, StemFit, SAG 300 nM day 0, BMP4 1.5 nM day 3, day 18","cell aggregates were maintained, and a neural tissue was formed"
same,aggregate shape and neural tissue formation (microscope),"Example 4 Condition 2, StemFit, SAG 300 nM day 0, BMP4 1.5 nM day 6, day 18","cell aggregates were maintained, and a neural tissue was formed"
same,aggregate shape and neural tissue formation (microscope),"Example 5 Condition 1, StemFit, SAG 600 nM day 0, BMP4 1.5 nM day 3, day 18","cell aggregates were maintained, and a neural tissue was formed"
same,aggregate shape and neural tissue formation (microscope),"Example 5 Condition 2, StemFit, SAG 600 nM day 0, BMP4 1.5 nM day 6, day 18","cell aggregates were maintained, and a neural tissue was formed"
same,aggregate growth and neuroepithelium formation (bright field),"Example 7, StemFit, SAG 30 nM, PMA 0.2 μM or human recombinant Shh 300 ng/ml day 0, BMP4 1.5 nM day 3, day 18",cell aggregates grew and neuroepithelium was formed
